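Cells were grown in 96-well plates and exposed to each compound for 48 hours at five concentrations; endpoints were interpolated linearly between bracketing concentrations, or set to the highest concentration if not reached. TGI: concentration producing complete growth inhibition.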
Tests used:
Assay in all cases: DTP human tumour cell line panel, 48 h
SW-620 colon = tested on: SW-620 colon
UO-31 renal = tested on: UO-31 renal
HCT-116 colon = tested on: HCT-116 colon
HCC-2998 colon = tested on: HCC-2998 colon
DU-145 prostate = tested on: DU-145 prostate
MOLT-4 leukemia = tested on: MOLT-4 leukemia
RXF 393 renal = tested on: RXF 393 renal
K-562 leukemia = tested on: K-562 leukemia
COLO 205 colon = tested on: COLO 205 colon
A549 NSCLC = tested on: A549 NSCLC
MCF7 breast = tested on: MCF7 breast
NCI-H522 lung = tested on: NCI-H522 lung
SF-268 CNS = tested on: SF-268 CNS
SNB-75 CNS = tested on: SNB-75 CNS
HS 578T breast = tested on: HS 578T breast
SN12C renal = tested on: SN12C renal
SK-MEL-5 melanoma = tested on: SK-MEL-5 melanoma
CAKI-1 renal = tested on: CAKI-1 renal
SK-MEL-2 melanoma = tested on: SK-MEL-2 melanoma
OVCAR-3 ovarian = tested on: OVCAR-3 ovarian
U251 CNS = tested on: U251 CNS
MDA-MB-435 = tested on: MDA-MB-435
MDA-N = tested on: MDA-N
UACC-62 melanoma = tested on: UACC-62 melanoma
NCI-H460 lung = tested on: NCI-H460 lung
SK-OV-3 ovarian = tested on: SK-OV-3 ovarian
KM12 colon = tested on: KM12 colon
SF-295 CNS = tested on: SF-295 CNS
HCT-15 colon = tested on: HCT-15 colon
IGROV1 ovarian = tested on: IGROV1 ovarian
SK-MEL-28 melanoma = tested on: SK-MEL-28 melanoma
PC-3 prostate = tested on: PC-3 prostate
T-47D breast = tested on: T-47D breast
M14 melanoma = tested on: M14 melanoma
HT29 colon = tested on: HT29 colon
NCI-H226 lung = tested on: NCI-H226 lung
786-0 renal = tested on: 786-0 renal
MALME-3M melanoma = tested on: MALME-3M melanoma
CCRF-CEM leukemia = tested on: CCRF-CEM leukemia
BT-549 breast = tested on: BT-549 breast
MDA-MB-231 breast = tested on: MDA-MB-231 breast
UACC-257 melanoma = tested on: UACC-257 melanoma
OVCAR-5 ovarian = tested on: OVCAR-5 ovarian
ACHN renal = tested on: ACHN renal
HOP-62 NSCLC = tested on: HOP-62 NSCLC
EKVX NSCLC = tested on: EKVX NSCLC
A498 renal = tested on: A498 renal
OVCAR-8 ovarian = tested on: OVCAR-8 ovarian
OVCAR-4 ovarian = tested on: OVCAR-4 ovarian
SR leukemia = tested on: SR leukemia
RPMI-8226 leukemia = tested on: RPMI-8226 leukemia
TK-10 renal = tested on: TK-10 renal
SNB-19 CNS = tested on: SNB-19 CNS
NCI-H23 lung = tested on: NCI-H23 lung
NCI/ADR-RES ovarian = tested on: NCI/ADR-RES ovarian
SF-539 CNS = tested on: SF-539 CNS
HOP-92 NSCLC = tested on: HOP-92 NSCLC
HL-60(TB) leukemia = tested on: HL-60(TB) leukemia

Measured: TGI

S=C(Nc1c2c(nc3ccccc13)CCCC2)Nc1c2c(nc3ccccc13)CCCC2
not listed: SF-539 CNS | HOP-92 NSCLC | HL-60(TB) leukemia
> 100 µM: all other assays above

CC(NC(=O)C(CC(=O)OCc1ccccc1)NC(=O)OCc1ccccc1)c1ccccc1 (centres undefined)
not listed: HCT-116 colon | CCRF-CEM leukemia | UACC-257 melanoma | A498 renal | OVCAR-4 ovarian | HOP-92 NSCLC | HL-60(TB) leukemia
> 100 µM: all other assays above

COC1(OC)C[C@H](C)[C@@]23O[C@]24C2=CC(=O)C=CC2=N[C@H]3C#C/C=C\C#C[C@]14O
2.06 µM: MDA-MB-231 breast
1.74 µM: OVCAR-4 ovarian
2.56 µM: T-47D breast
0.574 µM: 786-0 renal
2.51 µM: SK-MEL-28 melanoma
1.78 µM: A549 NSCLC
1.42 µM: NCI-H460 lung
0.106 µM: MOLT-4 leukemia
2.2 µM: BT-549 breast
2.24 µM: DU-145 prostate
2.05 µM: NCI-H23 lung
36.1 µM: NCI/ADR-RES ovarian
1.7 µM: MDA-MB-435
1.4 µM: MCF7 breast | CAKI-1 renal
3.02 µM: SNB-19 CNS
1.25 µM: HT29 colon
2.11 µM: A498 renal
3.58 µM: SK-MEL-2 melanoma
2.93 µM: UACC-62 melanoma
2.21 µM: EKVX NSCLC
1.88 µM: KM12 colon
0.811 µM: CCRF-CEM leukemia
0.318 µM: HL-60(TB) leukemia
1.56 µM: SK-MEL-5 melanoma
12.2 µM: SF-268 CNS
2.13 µM: HCC-2998 colon
6.65 µM: SF-295 CNS
0.965 µM: ACHN renal
0.56 µM: RPMI-8226 leukemia
2.89 µM: SK-OV-3 ovarian
2.28 µM: MDA-N
1.76 µM: UO-31 renal
1.8 µM: HOP-92 NSCLC | OVCAR-5 ovarian
2.25 µM: HOP-62 NSCLC
2.6 µM: NCI-H226 lung
1.82 µM: U251 CNS | M14 melanoma
2.37 µM: IGROV1 ovarian
2.14 µM: COLO 205 colon
1.35 µM: HCT-116 colon
0.4 µM: SR leukemia
2.49 µM: RXF 393 renal
3.42 µM: SW-620 colon
1.58 µM: SNB-75 CNS
1.93 µM: OVCAR-3 ovarian | SF-539 CNS
5.09 µM: HS 578T breast
2.09 µM: PC-3 prostate
2.1 µM: MALME-3M melanoma | TK-10 renal
5.16 µM: UACC-257 melanoma

From PubChem BioAssay (NCI)
